Laboratory results published in patent US20060276464A1, “Diarylsulfone sulfonamides and use thereof” (Wyeth, priority 2005, published 2006).
Values joined by “and” are separate entries in the source; they are usually repeats but may differ in a detail not shown here. Equal values may be shown once. Read-outs that look alike come from different tables or passages of the source.

Legend:
SFRP-1 [1] = target: T1, SFRP-1 (Homo sapiens, UniProt Q8N474); assay: Cell-based assay for in vitro measurement of SFRP-1/SARP2 antagonist activity (U2OS cells co-transfected with 16x TCF-tk-Luciferase reporter, Wnt and hSFRP-1); conditions: for fold induction at 15 µM / fold induction at 10 µM: U2OS; for fold induction at 10 µM: read-out: Fold Induction with SFRP-1, U2OS cells, single dose 10 μM, luciferase reporter, fold induction over SFRP-1 control;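 for all read-outs here: U2OS cells co-transfected with a TCF-tk luciferase reporter, a Wnt vector, hSFRP-1 or empty vector and CMV-βgal, luciferase luminescence read in cell lysates alongside βgal activity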
T1 sequence (Q8N474 32-314): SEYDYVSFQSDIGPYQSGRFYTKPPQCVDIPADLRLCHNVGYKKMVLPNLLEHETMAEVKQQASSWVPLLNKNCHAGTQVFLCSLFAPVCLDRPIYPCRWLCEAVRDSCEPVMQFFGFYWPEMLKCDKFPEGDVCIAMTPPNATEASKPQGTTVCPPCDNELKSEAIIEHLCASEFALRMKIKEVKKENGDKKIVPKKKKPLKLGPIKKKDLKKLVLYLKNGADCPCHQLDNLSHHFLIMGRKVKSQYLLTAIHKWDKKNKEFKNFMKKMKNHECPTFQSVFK

SFRP-1 [2] = target: T1, SFRP-1; assay: Fluorescence polarization binding assay (competitive displacement of a probe compound from SFRP-1); conditions: fluorescence anisotropy, 45 nM SFRP-1, 20 nM probe;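 note: test compound competes with a fluorescent probe held by SFRP-1, seen as a drop in probe anisotropy after incubation in darkness, with anisotropy as function of rising compound dose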
[3] = read-out: Fold Induction with SFRP-1, Conc 15 μM, single dose, luciferase reporter, fold induction over SFRP-1 control, cells with SFRP-1
[4] = read-out: Fold Induction without SFRP-1, Conc 15 μM, single dose, luciferase reporter, cells without SFRP-1 (specificity control)

SMILES | fold induction at 15 µM (SFRP-1 [1]; [3]) | fold induction at 15 µM (SFRP-1 [1]; [4]) | IC50 (SFRP-1 [2]) | melting point [°C] | EC50 (SFRP-1 [1]) [nM] | fold induction at 10 µM (SFRP-1 [1]) | fold induction at 15 µM (SFRP-1 [1]; read-out: Fold Induction with SFRP-1, Conc 15 μM, with SFRP-1, fold induction over SFRP-1 control, single dose) | fold induction at 15 µM (SFRP-1 [1]; read-out: Fold Induction without SFRP-1, Conc 15 μM, without SFRP-1, single dose)
CCCc1ccc(S(=O)(=O)c2ccccc2)cc1S(=O)(=O)NC1CCOCC1 [Example 551, 5-(Phenylsulfonyl)-2-propyl-N-(tetrahydro-2H-pyran-4-yl)benzenesulfonamide] | 3.1 | 1.1 | 1000 nM | 131 to 133 | – | – | – | –
CCCc1ccc(S(=O)(=O)c2ccccc2)cc1S(=O)(=O)NCCc1ccccn1 [Example 555, 5-(Phenylsulfonyl)-2-propyl-N-(2-pyridin-2-ylethyl)benzenesulfonamide] | 3.1 | 1.2 | 700 nM and 1100 nM | 100 to 102 | – | – | – | –
CC(C)c1cc(C(C)C)c(S(=O)(=O)c2ccccc2)cc1S(=O)(=O)NCC1CCOCC1 [Example 611, 2,4-Diisopropyl-5-(phenylsulfonyl)-N-(tetrahydro-2H-pyran-4-ylmethyl)benzenesulfonamide] | 2.6 | 1.1 | 1300 nM | 148 to 150 | – | – | – | –
CC(C)c1ccc(S(=O)(=O)c2ccccc2)cc1S(=O)(=O)NC1CCN(C(=O)c2ccccc2)CC1 [Example 802, N-(1-Benzoylpiperidin-4-yl)-2-isopropyl-5-(phenylsulfonyl)benzenesulfonamide] | – | – | 170 nM | 225 | 301 | 2.6 | – | –
CC(C)c1cc(C(C)C)c(S(=O)(=O)c2ccccc2)cc1S(=O)(=O)NCCc1ccncc1 [Example 617, 2,4-Diisopropyl-5-(phenylsulfonyl)-N-(2-pyridin-4-ylethyl)benzenesulfonamide] | 2 | 1.2 | 1000 nM | 178 to 180 | – | – | – | –
CC(C)c1ccc(S(=O)(=O)c2ccccc2)cc1S(=O)(=O)NC1CCN(C(=O)c2ccc(F)cc2)CC1 [Example 805, N-[1-(4-Fluorobenzoyl)piperidin-4-yl]-2-isopropyl-5-(phenylsulfonyl)benzenesulfonamide] | – | – | 400 nM | 218 to 220 | 512 | 3 | – | –
CC(C)c1cc(C(C)C)c(S(=O)(=O)c2ccccc2)cc1S(=O)(=O)NCCCn1ccnc1 [Example 615, N-[3-(1H-Imidazol-1-yl)propyl]-2,4-diisopropyl-5-(phenylsulfonyl)benzenesulfonamide] | 1.7 | 1 | 1200 nM | 203 to 205 | – | – | – | –
CC(C)c1cc(C(C)C)c(S(=O)(=O)c2ccc(F)cc2)cc1S(=O)(=O)NCC1CCOCC1 [Example 629, 5-[(4-Fluorophenyl)sulfonyl]-2,4-diisopropyl-N-(tetrahydro-2H-pyran-4-ylmethyl)benzenesulfonamide] | 2.1 | 1 | 3000 nM | 200 to 202 | – | – | – | –
Cc1ccc(S(=O)(=O)c2cc3c(c(S(=O)(=O)NCCc4ccccc4F)c2)CCCC3)cc1 [Example 441, N-[2-(2-Fluorophenyl)ethyl]-3-[(4-methylphenyl)sulfonyl]-5,6,7,8-tetrahydronaphthalene-1-sulfonamide] | – | – | 6000 nM | 55 to 60 | – | – | 1.8 | 1.1
CC(C)c1cc(C(C)C)c(S(=O)(=O)c2ccccc2)cc1S(=O)(=O)NCCc1ccccc1 [Example 609, 2,4-Diisopropyl-N-(2-phenylethyl)-5-(phenylsulfonyl)benzenesulfonamide] | 1.4 | 1.1 | 2100 nM | 156 to 158 | – | – | – | –
CC(C)c1ccc(S(=O)(=O)c2ccccc2)cc1S(=O)(=O)NC1CCN(C(=O)c2cccc3ccccc23)CC1 [Example 808, 2-Isopropyl-N-[1-(1-naphthoyl)piperidin-4-yl]-5-(phenylsulfonyl)benzenesulfonamide] | – | – | 500 nM | 163 to 165 | 945 | 3.7 | – | –
CC(C)c1cc(C(C)C)c(S(=O)(=O)c2ccccc2)cc1S(=O)(=O)NCCC1CCOCC1 [Example 612, 2,4-Diisopropyl-5-(phenylsulfonyl)-N-[2-(tetrahydro-2H-pyran-4-yl)ethyl]benzenesulfonamide] | 2 | 1.1 | 1600 nM | 90 to 92 | – | – | – | –
CC(C)c1ccc(S(=O)(=O)c2ccccc2)cc1S(=O)(=O)NC1CCN(C(=O)c2ccc(C#N)cc2)CC1 [Example 811, N-[1-(4-Cyanobenzoyl)piperidin-4-yl]-2-isopropyl-5-(phenylsulfonyl)benzenesulfonamide] | – | – | 300 nM | 136 to 138 | – | 2.6 | – | –
O=S(=O)(NC1CCOCC1)c1cc(S(=O)(=O)c2ccccc2)ccc1C(F)(F)F [Example 608, 5-(phenylsulfonyl)-N-(tetrahydro-2H-pyran-4-yl)-2-(trifluoromethyl)benzenesulfonamide] | 3.8 | 1.1 | 300 nM and 500 nM | 155 to 158 | – | – | – | –
CC(C)c1cc(C(C)C)c(S(=O)(=O)c2ccccc2)cc1S(=O)(=O)NC1CCCC1 [Example 613, N-Cyclopentyl-2,4-diisopropyl-5-(phenylsulfonyl)benzenesulfonamide] | 1.3 | 1 | 2500 nM and 3000 nM | 179 to 181 | – | – | – | –
CC(C)c1cc(C(C)C)c(S(=O)(=O)c2ccc(F)cc2)cc1S(=O)(=O)NC1CCOCC1 [Example 620, 5-[(4-Fluorophenyl)sulfonyl]-2,4-diisopropyl-N-(tetrahydro-2H-pyran-4-yl)benzenesulfonamide] | 2.7 | 1 | 1000 nM | 183 to 186 | – | – | – | –
CC(C)c1cc(C(C)C)c(S(=O)(=O)c2ccc(F)cc2)cc1S(=O)(=O)NCCc1ccccn1 [Example 631, 5-[(4-Fluorophenyl)sulfonyl]-2,4-diisopropyl-N-(2-pyridin-2-ylethyl)benzenesulfonamide] | 2.4 | 1 | 4000 nM | 159 to 161 | – | – | – | –
CC(C)c1cc(C(C)C)c(S(=O)(=O)c2ccccc2)cc1S(=O)(=O)NCCc1cccnc1 [Example 616, 2,4-Diisopropyl-5-(phenylsulfonyl)-N-(2-pyridin-3-ylethyl)benzenesulfonamide] | 2.7 | 1 | 800 nM | 163 to 165 | – | – | – | –
CC(C)c1ccc(S(=O)(=O)c2ccccc2)cc1S(=O)(=O)NC1CCN(C(=O)c2ccc(C(C)(C)C)cc2)CC1 [Example 812, N-[1-(4-tert-Butylbenzoyl)piperidin-4-yl]-2-isopropyl-5-(phenylsulfonyl)benzenesulfonamide] | – | – | 600 nM | 150 to 152 | – | 3.9 | – | –
CC(C)c1cc(C(C)C)c(S(=O)(=O)c2ccccc2)cc1S(=O)(=O)NCCc1ccccn1 [Example 614, 2,4-Diisopropyl-5-(phenylsulfonyl)-N-(2-pyridin-2-ylethyl)benzenesulfonamide] | 1.8 | 1 | 1300 nM | 189 to 191 | – | – | – | –
COc1ccccc1C(=O)N1CCC(NS(=O)(=O)c2cc(S(=O)(=O)c3ccccc3)ccc2C(C)C)CC1 [Example 803, 2-Isopropyl-N-[1-(2-methoxybenzoyl)piperidin-4-yl]-5-(phenylsulfonyl)benzenesulfonamide] | – | – | 290 nM | 160 to 162 | – | 3.2 | – | –
CCCc1ccc(S(=O)(=O)c2ccccc2)cc1S(=O)(=O)NCCc1ccncc1 [Example 859, 5-(Phenylsulfonyl)-2-propyl-N-(2-pyridin-4-ylethyl)benzenesulfonamide] | – | – | 600 nM | 155 to 157 | 1540 | 3.6 | – | –
CC(C)c1ccc(S(=O)(=O)c2ccccc2)cc1S(=O)(=O)NC1CCN(C(=O)c2cccc(C#N)c2)CC1 [Example 810, N-[1-(3-Cyanobenzoyl)piperidin-4-yl]-2-isopropyl-5-(phenylsulfonyl)benzenesulfonamide] | – | – | 290 nM | 120 to 122 | 818 | 3.1 | – | –
CC(C)c1cc(C(C)C)c(S(=O)(=O)c2ccc(F)cc2)cc1S(=O)(=O)NCCc1cccnc1 [Example 632, 5-[(4-Fluorophenyl)sulfonyl]-2,4-diisopropyl-N-(2-pyridin-3-ylethyl)benzenesulfonamide] | 3 | 1 | 2600 nM | 148 to 150 | – | – | – | –
CCCc1ccc(S(=O)(=O)c2ccccc2)cc1S(=O)(=O)NC1CCN(C(=O)OC(C)(C)C)CC1 [Example 558, tert-Butyl 4-({[5-(phenylsulfonyl)-2-propylphenyl]sulfonyl}amino)piperidine-1-carboxylate] | 1.8 | 1.1 | 700 nM | 128 to 130 | – | – | – | –
